Activity calls are given as the source filed them. The calls are words filed in the database; no cut-off is given here.
What was measured:
[1] = biological target: Vascular endothelial growth factor receptor 2 (Homo sapiens) (UniProt P35968); experiment: Induction of VEGFR2 degradation in human U87 cells at 10 uM incubated for 48 hrs by Western blot analysis; type: cell-based
[2] = biological target: T1, Ephrin type-B receptor 4 (Homo sapiens) (UniProt P54760); experiment: Induction of EphB4 degradation in human U87 cells at 10 uM incubated for 48 hrs in presence of 4-(4-(3-(4-chloro-3-(trifluoromethyl)phenyl)ureido)phenoxy)-N-(prop-2-yn-1-yl)picolinamide by Western blot analysis; type: cell-based
T1 sequence (whole entry): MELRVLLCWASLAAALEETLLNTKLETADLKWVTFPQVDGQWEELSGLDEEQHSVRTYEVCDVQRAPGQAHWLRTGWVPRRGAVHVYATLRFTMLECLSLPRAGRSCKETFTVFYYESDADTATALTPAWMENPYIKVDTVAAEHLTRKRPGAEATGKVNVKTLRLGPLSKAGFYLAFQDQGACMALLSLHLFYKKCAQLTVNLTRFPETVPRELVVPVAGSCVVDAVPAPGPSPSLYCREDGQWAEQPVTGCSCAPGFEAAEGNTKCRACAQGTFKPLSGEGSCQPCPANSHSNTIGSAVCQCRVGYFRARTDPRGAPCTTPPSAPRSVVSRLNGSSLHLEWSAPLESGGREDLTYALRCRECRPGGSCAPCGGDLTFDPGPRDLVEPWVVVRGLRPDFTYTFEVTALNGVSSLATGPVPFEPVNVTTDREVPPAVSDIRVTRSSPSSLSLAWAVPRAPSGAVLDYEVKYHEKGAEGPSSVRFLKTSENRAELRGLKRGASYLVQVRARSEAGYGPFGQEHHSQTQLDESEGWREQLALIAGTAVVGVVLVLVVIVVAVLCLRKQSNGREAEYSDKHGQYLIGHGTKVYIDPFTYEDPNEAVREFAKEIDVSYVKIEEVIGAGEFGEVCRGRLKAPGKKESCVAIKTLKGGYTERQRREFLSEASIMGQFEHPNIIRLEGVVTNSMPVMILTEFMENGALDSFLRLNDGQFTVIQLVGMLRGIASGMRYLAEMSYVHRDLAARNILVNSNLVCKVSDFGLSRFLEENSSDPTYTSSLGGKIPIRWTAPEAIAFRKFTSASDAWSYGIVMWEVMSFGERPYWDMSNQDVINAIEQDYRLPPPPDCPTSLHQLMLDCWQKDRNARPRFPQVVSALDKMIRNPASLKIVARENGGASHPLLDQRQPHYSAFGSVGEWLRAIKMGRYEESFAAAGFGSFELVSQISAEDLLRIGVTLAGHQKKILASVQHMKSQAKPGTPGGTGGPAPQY

[3] = biological target: Serine/threonine-protein kinase B-raf (Homo sapiens) (UniProt P15056); experiment: Induction of BRAF degradation in human U87 cells at 10 uM incubated for 48 hrs in presence of 4-(4-(3-(4-chloro-3-(trifluoromethyl)phenyl)ureido)phenoxy)-N-(prop-2-yn-1-yl)picolinamide by Western blot analysis; type: cell-based
Sequence of Serine/threonine-protein kinase B-raf (Homo sapiens) (P15056 whole entry): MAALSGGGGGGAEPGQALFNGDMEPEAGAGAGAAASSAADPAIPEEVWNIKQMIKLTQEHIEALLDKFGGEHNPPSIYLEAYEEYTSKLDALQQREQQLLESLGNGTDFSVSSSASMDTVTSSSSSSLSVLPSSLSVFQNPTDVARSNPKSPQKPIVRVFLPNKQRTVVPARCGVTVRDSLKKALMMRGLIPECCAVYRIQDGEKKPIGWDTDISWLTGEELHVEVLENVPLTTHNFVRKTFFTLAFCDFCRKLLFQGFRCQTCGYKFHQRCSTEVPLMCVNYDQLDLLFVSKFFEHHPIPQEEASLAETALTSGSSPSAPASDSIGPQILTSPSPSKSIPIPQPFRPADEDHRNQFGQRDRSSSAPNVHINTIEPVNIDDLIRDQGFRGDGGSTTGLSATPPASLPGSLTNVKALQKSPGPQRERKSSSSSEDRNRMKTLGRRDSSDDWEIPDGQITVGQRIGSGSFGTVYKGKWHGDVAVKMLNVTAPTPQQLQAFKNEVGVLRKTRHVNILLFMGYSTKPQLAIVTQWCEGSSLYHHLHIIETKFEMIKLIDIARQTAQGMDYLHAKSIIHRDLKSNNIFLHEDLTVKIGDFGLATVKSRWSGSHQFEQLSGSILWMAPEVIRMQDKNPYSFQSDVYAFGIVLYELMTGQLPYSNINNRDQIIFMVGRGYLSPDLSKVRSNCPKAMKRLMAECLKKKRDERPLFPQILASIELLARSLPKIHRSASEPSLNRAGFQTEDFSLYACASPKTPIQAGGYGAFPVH

U-87 MG [4] = experiment: Induction of apoptosis in human U87 cells assessed as late apoptotic cells at 5 uM incubated for 48 hrs in presence of 4-(4-(3-(4-chloro-3-(trifluoromethyl)phenyl)ureido)phenoxy)-N-(prop-2-yn-1-yl)picolinamide by Annexin V-FLTC/PI staining based flow cytometry (reference value: 3.71 %); type: functional, U-87MG ATCC
U-87 MG [5] = experiment: Induction of apoptosis in human U87 cells assessed as necrotic cells at 5 uM incubated for 48 hrs in presence of 4-(4-(3-(4-chloro-3-(trifluoromethyl)phenyl)ureido)phenoxy)-N-(prop-2-yn-1-yl)picolinamide by Annexin V-FLTC/PI staining based flow cytometry (reference value: 0.60 %); type: functional, U-87MG ATCC
U-87 MG [6] = experiment: Induction of apoptosis in human U87 cells assessed as late apoptotic cells at 10 uM incubated for 48 hrs in presence of 4-(4-(3-(4-chloro-3-(trifluoromethyl)phenyl)ureido)phenoxy)-N-(prop-2-yn-1-yl)picolinamide by Annexin V-FLTC/PI staining based flow cytometry (reference value: 3.71 %); type: functional, U-87MG ATCC
U-87 MG [7] = experiment: Induction of apoptosis in human U87 cells assessed as late apoptotic cells at 20 uM incubated for 48 hrs in presence of 4-(4-(3-(4-chloro-3-(trifluoromethyl)phenyl)ureido)phenoxy)-N-(prop-2-yn-1-yl)picolinamide by Annexin V-FLTC/PI staining based flow cytometry (reference value: 3.71 %); type: functional, U-87MG ATCC
A549 = experiment: Antiproliferative activity against human A549 cells incubated for 48 hrs in presence of 4-azido-N-(2-(2,6-dioxopiperidin-3-yl)-1,3-dioxoisoindolin-4-yl)butanamide by MTT assay; type: functional, cell-based; settings: A549, 48 h
U-87 MG [8] = experiment: Antiproliferative activity against human U87 cells incubated for 48 hrs in presence of (2S,4R)-1-((S)-2-(5-azidopentanamido)-3,3-dimethylbutanoyl)-4-hydroxy-N-(4-(4-methylthiazol-5-yl)benzyl)pyrrolidine-2-carboxamide by MTT assay; type: functional, cell-based, U-87MG ATCC
HEK293 = experiment: Cytotoxicity against HEK293 cells at high concentration incubated for 48 hrs in presence of 4-azido-N-(2-(2,6-dioxopiperidin-3-yl)-1,3-dioxoisoindolin-4-yl)butanamide by MTT assay; type: toxicity, cell-based; settings: human, hek293, 48 h
[9] = biological target: T1, Ephrin type-B receptor 4 (Homo sapiens); experiment: Induction of EphB4 degradation in human U87 cells upto 10 uM incubated for 48 hrs by Western blot analysis; type: cell-based
[10] = biological target: Vascular endothelial growth factor receptor 2 (Homo sapiens) (UniProt P35968); experiment: Induction of VEGFR2 degradation in human U87 cells at 10 uM incubated for 48 hrs in presence of 4-azido-N-(2-(2,6-dioxopiperidin-3-yl)-1,3-dioxoisoindolin-4-yl)butanamide by Western blot analysis; type: cell-based
[11] = biological target: Platelet-derived growth factor receptor beta (Homo sapiens) (UniProt P09619); experiment: Induction of PDGFR-beta degradation in human U87 cells at 10 uM incubated for 48 hrs in presence of 4-azido-N-(2-(2,6-dioxopiperidin-3-yl)-1,3-dioxoisoindolin-4-yl)butanamide by Western blot analysis; type: cell-based
Sequence of Platelet-derived growth factor receptor beta (Homo sapiens) (P09619 whole entry): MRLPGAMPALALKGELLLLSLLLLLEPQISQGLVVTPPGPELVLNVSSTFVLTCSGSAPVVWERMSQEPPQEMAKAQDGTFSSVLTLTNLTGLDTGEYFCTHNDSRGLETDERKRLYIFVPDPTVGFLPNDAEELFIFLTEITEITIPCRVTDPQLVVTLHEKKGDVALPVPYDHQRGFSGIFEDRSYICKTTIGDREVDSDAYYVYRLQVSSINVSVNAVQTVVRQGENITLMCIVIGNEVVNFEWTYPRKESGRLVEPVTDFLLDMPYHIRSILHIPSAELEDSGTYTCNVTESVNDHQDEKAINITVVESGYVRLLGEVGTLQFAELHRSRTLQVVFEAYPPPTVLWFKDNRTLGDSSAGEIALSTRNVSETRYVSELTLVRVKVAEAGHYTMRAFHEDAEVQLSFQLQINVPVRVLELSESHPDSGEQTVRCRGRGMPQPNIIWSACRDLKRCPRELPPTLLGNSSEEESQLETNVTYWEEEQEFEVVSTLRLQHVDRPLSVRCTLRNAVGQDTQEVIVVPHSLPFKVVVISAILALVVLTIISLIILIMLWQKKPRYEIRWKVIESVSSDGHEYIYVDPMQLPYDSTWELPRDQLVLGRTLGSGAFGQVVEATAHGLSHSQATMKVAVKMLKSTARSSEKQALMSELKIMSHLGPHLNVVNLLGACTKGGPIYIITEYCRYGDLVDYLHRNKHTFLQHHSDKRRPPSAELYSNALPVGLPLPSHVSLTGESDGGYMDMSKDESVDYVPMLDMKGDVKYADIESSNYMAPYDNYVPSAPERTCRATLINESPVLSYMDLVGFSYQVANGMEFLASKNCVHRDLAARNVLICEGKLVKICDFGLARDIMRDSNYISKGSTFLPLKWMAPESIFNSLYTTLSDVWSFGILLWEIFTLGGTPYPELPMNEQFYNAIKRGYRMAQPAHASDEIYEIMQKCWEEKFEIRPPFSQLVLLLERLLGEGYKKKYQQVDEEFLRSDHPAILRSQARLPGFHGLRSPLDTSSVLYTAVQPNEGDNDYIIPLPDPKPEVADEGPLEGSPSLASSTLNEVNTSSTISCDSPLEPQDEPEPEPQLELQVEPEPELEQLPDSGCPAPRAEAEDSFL

[12] = biological target: T1, Ephrin type-B receptor 4 (Homo sapiens); experiment: Induction of EphB4 degradation in human U87 cells at 10 uM incubated for 48 hrs in presence of 4-azido-N-(2-(2,6-dioxopiperidin-3-yl)-1,3-dioxoisoindolin-4-yl)butanamide by Western blot analysis; type: cell-based
[13] = biological target: Vascular endothelial growth factor receptor 2 (Homo sapiens) (UniProt P35968); experiment: Induction of VEGFR2 degradation in human U87 cells at 2 uM incubated for 48 hrs in presence of (2S,4R)-1-((S)-2-(5-azidopentanamido)-3,3-dimethylbutanoyl)-4-hydroxy-N-(4-(4-methylthiazol-5-yl)benzyl)pyrrolidine-2-carboxamide by Western blot analysis; type: cell-based
[14] = biological target: T1, Ephrin type-B receptor 4 (Homo sapiens); experiment: Induction of EphB4 degradation in human U87 cells at 2 uM incubated for 48 hrs in presence of (2S,4R)-1-((S)-2-(5-azidopentanamido)-3,3-dimethylbutanoyl)-4-hydroxy-N-(4-(4-methylthiazol-5-yl)benzyl)pyrrolidine-2-carboxamide by Western blot analysis; type: cell-based
U-87 MG [15] = experiment: Induction of apoptosis in human U87 cells assessed as early apoptotic cells at 1 uM incubated for 48 hrs in presence of (2S,4R)-1-((S)-2-(5-azidopentanamido)-3,3-dimethylbutanoyl)-4-hydroxy-N-(4-(4-methylthiazol-5-yl)benzyl)pyrrolidine-2-carboxamide by Annexin V-FLTC/PI staining based flow cytometry (reference value: 8.95 %); type: functional, U-87MG ATCC
U-87 MG [16] = experiment: Induction of apoptosis in human U87 cells assessed as late apoptotic cells at 10 uM incubated for 48 hrs in presence of (2S,4R)-1-((S)-2-(5-azidopentanamido)-3,3-dimethylbutanoyl)-4-hydroxy-N-(4-(4-methylthiazol-5-yl)benzyl)pyrrolidine-2-carboxamide by Annexin V-FLTC/PI staining based flow cytometry (reference value: 3.71 %); type: functional, U-87MG ATCC

Sequence of Vascular endothelial growth factor receptor 2 (Homo sapiens) (P35968 whole entry): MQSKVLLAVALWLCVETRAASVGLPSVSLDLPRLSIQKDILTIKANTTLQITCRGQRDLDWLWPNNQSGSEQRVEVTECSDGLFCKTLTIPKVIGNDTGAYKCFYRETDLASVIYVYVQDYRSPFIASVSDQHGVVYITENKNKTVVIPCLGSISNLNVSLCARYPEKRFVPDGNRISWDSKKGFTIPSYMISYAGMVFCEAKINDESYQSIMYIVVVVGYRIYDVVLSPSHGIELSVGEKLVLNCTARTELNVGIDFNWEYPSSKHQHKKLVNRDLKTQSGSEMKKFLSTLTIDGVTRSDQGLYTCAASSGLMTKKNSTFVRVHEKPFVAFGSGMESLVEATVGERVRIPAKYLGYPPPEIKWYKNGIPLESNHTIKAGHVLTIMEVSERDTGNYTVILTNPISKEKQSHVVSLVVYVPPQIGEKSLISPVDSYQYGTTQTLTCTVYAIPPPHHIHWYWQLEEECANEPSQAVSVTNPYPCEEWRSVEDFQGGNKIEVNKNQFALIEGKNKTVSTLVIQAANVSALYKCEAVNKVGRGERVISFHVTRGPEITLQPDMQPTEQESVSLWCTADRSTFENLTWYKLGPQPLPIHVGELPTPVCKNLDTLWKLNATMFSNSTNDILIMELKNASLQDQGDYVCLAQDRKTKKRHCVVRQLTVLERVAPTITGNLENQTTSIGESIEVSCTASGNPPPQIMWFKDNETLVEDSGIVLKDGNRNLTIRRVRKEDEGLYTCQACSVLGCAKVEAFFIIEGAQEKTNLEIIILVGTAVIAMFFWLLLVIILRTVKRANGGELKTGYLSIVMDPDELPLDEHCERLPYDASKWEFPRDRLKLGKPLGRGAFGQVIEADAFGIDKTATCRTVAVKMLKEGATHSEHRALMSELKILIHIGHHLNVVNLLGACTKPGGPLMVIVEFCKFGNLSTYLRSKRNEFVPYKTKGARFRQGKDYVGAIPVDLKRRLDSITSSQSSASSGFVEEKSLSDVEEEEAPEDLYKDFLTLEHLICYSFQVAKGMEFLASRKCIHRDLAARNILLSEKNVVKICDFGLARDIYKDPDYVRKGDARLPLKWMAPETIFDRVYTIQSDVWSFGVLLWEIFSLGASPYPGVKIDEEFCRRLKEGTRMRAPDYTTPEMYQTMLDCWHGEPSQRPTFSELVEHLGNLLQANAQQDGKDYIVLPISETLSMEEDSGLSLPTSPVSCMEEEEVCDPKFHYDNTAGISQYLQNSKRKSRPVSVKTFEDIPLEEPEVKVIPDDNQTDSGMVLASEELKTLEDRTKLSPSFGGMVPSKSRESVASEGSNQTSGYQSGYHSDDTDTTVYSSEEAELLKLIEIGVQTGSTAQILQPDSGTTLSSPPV

| Structure (SMILES) | Activity [1] | Activity [2] | Activity [3] | Activity (U-87 MG [4]) [%] | Activity (U-87 MG [5]) [%] | Activity (U-87 MG [6]) [%] | Activity (U-87 MG [7]) [%] | IC50 (A549) [µM] | IC50 (U-87 MG [8]) [µM] | Activity (HEK293) | Activity [9] | Activity [10] | Activity [11] | Activity [12] | Activity [13] | Activity [14] | Activity (U-87 MG [15]) [%] | Activity (U-87 MG [16]) [%] |
| --- | --- | --- | --- | --- | --- | --- | --- | --- | --- | --- | --- | --- | --- | --- | --- | --- | --- | --- |
| [N-]=[N+]=NCCCC(=O)Nc1cccc2c1C(=O)N(C1CCC(=O)NC1=O)C2=O (stereo not drawn) | Active | Active | Active | 73.25 | 25.22 | 72.58 | 79.04 | – | – | – | – | – | – | – | – | – | – | – |
| C#CCNC(=O)c1cc(Oc2ccc(NC(=O)Nc3ccc(Cl)c(C(F)(F)F)c3)cc2)ccn1 | – | – | – | – | – | – | – | 1.16 | 16 | Toxic | inactive | Active | Active | Active | Active | Active | 11.69 | 72.58 |
